From patent US9850183B2, “Conjugates derived from non-steroidal anti-inflammatory drugs and methods of use thereof in imaging” (Reiley Pharmaceuticals, Inc., priority 2014, dated 2017)
Where two headings read alike, the source gives them in different places.

Experiments:
human COX-2 = molecular target: T1, human COX-2 (Homo sapiens, UniProt P35354); assay: COX-2 enzyme assay (EIA kit, PGF2α readout); assay type: biochemical
T1 construct: purchased Cayman Chemical Co., Ann Arbor, Mich., USA 701080
T1 sequence (P35354 18-604): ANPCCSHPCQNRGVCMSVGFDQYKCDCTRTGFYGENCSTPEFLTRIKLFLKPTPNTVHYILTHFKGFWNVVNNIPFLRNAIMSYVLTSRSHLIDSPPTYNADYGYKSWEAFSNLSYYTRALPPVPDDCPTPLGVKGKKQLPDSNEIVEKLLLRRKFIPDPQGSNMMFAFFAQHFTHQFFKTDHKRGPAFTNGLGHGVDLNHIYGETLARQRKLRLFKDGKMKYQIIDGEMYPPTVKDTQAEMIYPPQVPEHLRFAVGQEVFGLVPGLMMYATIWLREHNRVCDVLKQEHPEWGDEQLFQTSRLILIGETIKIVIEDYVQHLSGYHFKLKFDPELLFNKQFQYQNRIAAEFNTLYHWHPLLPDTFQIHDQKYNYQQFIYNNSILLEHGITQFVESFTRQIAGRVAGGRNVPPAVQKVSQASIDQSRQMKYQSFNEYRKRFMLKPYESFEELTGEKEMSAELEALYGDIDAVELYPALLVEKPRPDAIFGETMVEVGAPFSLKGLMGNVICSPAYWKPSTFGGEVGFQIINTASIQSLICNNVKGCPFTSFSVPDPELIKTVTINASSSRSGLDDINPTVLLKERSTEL
Protocol: The ability of compounds to inhibit ovine COX-1 and human COX-2 was determined using a commercially available enzyme immunoassay (EIA) kit (catalog no. 701090 (COX-1); 701080 (COX-2) Cayman Chemical Co., Ann Arbor, Mich., USA) according to the manufacturer's protocol. COX catalyzes the first step in the biosynthesis of AA to PGH2. PGF2α, produced from PGH2 by reduction with stannous chloride, was measured by EIA (ACE™ competitive EIA, Cayman Chemical, Ann Arbor, Mich., USA). Briefly, to a series of supplied reaction buffer solutions [960 μl 0.1 M Tris-HCl (pH 8.0) containing 5 mM EDTA and 2 mM phenol] with either COX-1 or COX-2 (10 μl) enzyme in the presence of heme (10 μl), 10 μl of various concentrations of test drug solutions were added. These solutions were incubated for 15 min at 37° C. and subsequently 10 μl AA solution (100 μM) was added. The COX reaction was stopped by the addition of 30 μl stannus chloride after 2 min, mixed immediately, supernatants were 2000 fold diluted. The produced PGF2α was measured by EIA. This assay is based on the competition between PGs and a PG-acetylcholinesterase conjugate (PG tracer) for a limited amount of PG antiserum. The amount of PG tracer that is able to bind to the PG antiserum is inversely proportional to the concentration of PGs in the wells since the concentration of the PG tracer is held at a constant while the concentration of PGs varies. The specific antiserum-PG complex bound to a mouse anti-rabbit IgG that had been previously attached to the well. The plate was washed to remove any unbound reagents and 200 μl Ellman's reagent (5,5′-dithiobis-(2-nitrobenzoic acid), which contains the substrate to acetylcholine esterase, was added to the well. The product of this enzymatic reaction generates a distinct yellow color that absorbs at 406 nm. The intensity of this color, determined by spectrophotometry, is proportional to the amount of PG tracer bound to the well, which is inversely proportional to the amount of PGs present in the well during the incubation. Percent inhibition was calculated by the comparison of the compounds treated to the various control incubations.
(§1) Dose-response curves were generated using XLFit (IDBS, Surrey, UK) or Prism (GraphPad Software, La Jolla, Calif., US) to calculate IC50 values for each compound tested.

COX-2 = molecular target: T2, COX-2 (Mus musculus, UniProt Q05769); assay: Cell-based COX-2 assay (PGE2 in LPS/IFN-g stimulated RAW264.7 cells); conditions: RAW264.7 murine macrophages, 1 μg/ml LPS and 10 U/ml IFN-g for 7 h, PGE2 readout
T2 construct: endogenous in cells; host or cells: RAW264.7 murine macrophages, stimulated with LPS and IFN-g
T2 sequence (Q05769 18-604): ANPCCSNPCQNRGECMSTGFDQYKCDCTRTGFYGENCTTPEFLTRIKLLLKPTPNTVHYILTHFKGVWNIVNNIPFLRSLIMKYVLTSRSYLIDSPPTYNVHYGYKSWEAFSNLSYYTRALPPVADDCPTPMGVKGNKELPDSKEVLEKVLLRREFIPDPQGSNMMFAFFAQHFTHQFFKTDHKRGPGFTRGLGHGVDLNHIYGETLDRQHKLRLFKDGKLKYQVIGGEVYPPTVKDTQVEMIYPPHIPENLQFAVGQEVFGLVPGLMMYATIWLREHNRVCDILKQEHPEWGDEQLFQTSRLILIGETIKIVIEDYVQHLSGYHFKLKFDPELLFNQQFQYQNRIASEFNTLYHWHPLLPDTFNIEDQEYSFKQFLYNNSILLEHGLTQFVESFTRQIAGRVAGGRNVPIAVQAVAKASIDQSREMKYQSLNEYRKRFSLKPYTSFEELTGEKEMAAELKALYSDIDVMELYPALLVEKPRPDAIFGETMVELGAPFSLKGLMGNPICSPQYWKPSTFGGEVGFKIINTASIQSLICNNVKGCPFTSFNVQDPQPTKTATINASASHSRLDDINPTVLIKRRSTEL
Protocol: RAW264.7 murine macrophages were obtained from the Cell Bank of Shanghai Institute of Biochemistry and Cell Biology, Chinese Academy of Sciences (Shanghai, China) and cultured in Dulbecco's modified Eagle's medium containing 100 U/ml penicillin and 100 μg/ml streptomycin at 37° C. in 5% CO2.
RAW264.7 cells were plated at a density of 2.5×10^5/ml cells in a 96-well plate with 0.1 ml of culture medium per well and cultured overnight. The cells were pre-incubated for 30 min with various doses of compounds and stimulated for 7 h with 1 μg/ml LPS and 10 U/ml IFN-g. The cell culture supernatants were collected immediately following treatment and centrifuged at 1,000 rpm for 5 min to remove the particulate matter. PGE2 was determined using a Prostaglandin E2 assay kit (catalog no. 62P2APEB; Cisbio Co.,). 10 μL of cell supernatant was transferred to a 384-well low volume plate (e.g. Corning® 3544), 5 μL of PGE2-d2 was added, followed by 5 μL anti-PGE2 Cryptate as a negative control. Replace the standard by 10 μL of diluent and PGE2-d2 by 5 μL of reconstitution buffer, Cal0 (for positive control), replace the standard by 10 μL of diluent. Incubate at 4° C. overnight. After centrifuging at 1,000 rpm for 1 min, the dual fluorescence emissions of 615 and 665 nm with a 320 nm excitation were measured using an Envision plate reader (Perkin Elmer, Shelton, Conn.). The results are expressed as the ratio of 665 nm/615 nm emissions.
as §1

[1] = human COX-2 enzyme, EIA, 15 min pre-incubation at 37° C., read-out: COX-2 IC50 (μM) enzyme

| SMILES | IC50 (human COX-2; [1]) [µM] | IC50 (COX-2) [µM] | IC50 (human COX-2) [µM] |
| --- | --- | --- | --- |
| COc1ccc2c(c1)c(CC(=O)NCCCCNC(=O)C[N]1C(=O)C[N]3C(=O)C[N]4C(=O)C[S][Re]143=[O])c(C)n2C(=O)c1ccc(Cl)cc1 [Compound 23] | 12 |  |  |
| COc1ccc2c(c1)c(CC(=O)NCCCCCCNC(=O)C[N]1C(=O)C[N]3C(=O)C[N]4C(=O)C[S][Re]143=[O])c(C)n2C(=O)c1ccc(Cl)cc1 [Compound 27] | 0.6 | 12.7 |  |
| Cc1c(CC(=O)O)c2cc(OCCCCNC(=O)C[N]3C(=O)C[N]4C(=O)C[N]5C(=O)C[S][Re]354=[O])ccc2n1C(=O)c1ccc(Cl)cc1 [Compound 35] |  |  | 1.6 |
| Cc1c(CC(=O)O)c2cc(OCCCCCCNC(=O)C[N]3C(=O)C[N]4C(=O)C[N]5C(=O)C[S][Re]354=[O])ccc2n1C(=O)c1ccc(Cl)cc1 [Compound 39] |  |  | 1.1 |
| CCOC(=O)C1C[S][Re]23(=[O])[S]CC(C(=O)NCCOCCOCCNC(=O)Cc4c(C)n(C(=O)c5ccc(Cl)cc5)c5ccc(OC)cc45)[N]2CC[N]13 (stereo not shown) [Compound 178] | 0.2 | 1.8 |  |
| CCOC(=O)C1C[S][Re]23(=[O])[S]CC(C(=O)NCCCCCCNC(=O)Cc4c(C)n(C(=O)c5ccc(Cl)cc5)c5ccc(OC)cc45)[N]2CC[N]13 (stereo not shown) [Compound 181] | 1 | 1.5 |  |
| CCOC(=O)C1C[S][Re]23(=[O])[S]CC(C(=O)NCCCCCCCNC(=O)Cc4c(C)n(C(=O)c5ccc(Cl)cc5)c5ccc(OC)cc45)[N]2CC[N]13 (stereo not shown) [Compound 182] | 0.8 | 0.6 |  |
| CCOC(=O)C1C[S][Re]23(=[O])[S]CC(C(=O)NCCCCCCCCNC(=O)Cc4c(C)n(C(=O)c5ccc(Cl)cc5)c5ccc(OC)cc45)[N]2CC[N]13 (stereo not shown) [Compound 183] | 0.4 | 0.7 |  |
| COc1ccc2c(c1)c(CC(=O)NCCCCCCNC(=O)C1C[S][Re]34(=[O])[S]CC(C(=O)OC(C)C)[N]3CC[N]14)c(C)n2C(=O)c1ccc(Cl)cc1 (stereo not shown) [Compound 185] | 1.2 | 0.5 |  |
| COc1ccc2c(c1)c(CC(=O)NCCNC(=O)[c-]1cccc1)c(C)n2C(=O)c1ccc(Cl)cc1.[C-]#[O+].[C-]#[O+].[C-]#[O+].[Re+] [Compound 243] | 0.5 | 0.7 |  |
| COc1ccc2c(c1)c(CC(=O)NCCOCCNC(=O)[c-]1cccc1)c(C)n2C(=O)c1ccc(Cl)cc1.[C-]#[O+].[C-]#[O+].[C-]#[O+].[Re+] [Compound 244] | > 30 | 1.5 |  |
| COc1ccc2c(c1)c(CC(=O)NCCCCCCCCNC(=O)[c-]1cccc1)c(C)n2C(=O)c1ccc(Cl)cc1.[C-]#[O+].[C-]#[O+].[C-]#[O+].[Re+] [Compound 247] | 0.2 | 2.6 |  |
| COc1ccc2c(c1)c(CC(=O)NCCOCCOCCOCCNC(=O)[c-]1cccc1)c(C)n2C(=O)c1ccc(Cl)cc1.[C-]#[O+].[C-]#[O+].[C-]#[O+].[Re+] [Compound 248] | 0.2 | > 30 |  |
| COc1ccc2c(c1)c(CC(=O)NCc1ccc(CNC(=O)[c-]3cccc3)cc1)c(C)n2C(=O)c1ccc(Cl)cc1.[C-]#[O+].[C-]#[O+].[C-]#[O+].[Re+] [Compound 249] | 1.1 | 4.4 |  |
| COc1ccc2c(c1)c(CC(=O)NCCOCCOCCNC(=O)c1ccc[cH-]1)c(C)n2C(=O)c1ccc(Cl)cc1.[C-]#[O+].[C-]#[O+].[C-]#[O+].[Re+] [Compound 251] | 0.3 | > 30 |  |
| COc1ccc2c(c1)c(CC(=O)NCCCC[N+]13CC[S][Re-]14(=[O])[S]CC[N]4C(=O)C3)c(C)n2C(=O)c1ccc(Cl)cc1 (stereo not shown) [Compound 261] | 0.8 | 1.8 |  |
| COc1ccc2c(c1)c(CC(=O)NCCOCC[N+]13CC[S][Re-]14(=[O])[S]CC[N]4C(=O)C3)c(C)n2C(=O)c1ccc(Cl)cc1 (stereo not shown) [Compound 262] |  | 1.7 | 0.9 |
| COc1ccc2c(c1)c(CC(=O)NCCCCC[N+]13CC[S][Re-]14(=[O])[S]CC[N]4C(=O)C3)c(C)n2C(=O)c1ccc(Cl)cc1 (stereo not shown) [Compound 263] |  | 0.3 | 0.3 |
| COc1ccc2c(c1)c(CC(=O)NCCCCCCCC[N+]13CC[S][Re-]14(=[O])[S]CC[N]4C(=O)C3)c(C)n2C(=O)c1ccc(Cl)cc1 (stereo not shown) [Compound 265] |  | 0.1 | 2.1 |
| COc1ccc2c(c1)c(CC(=O)NCCCOCCC[N+]13CC[S][Re-]14(=[O])[S]CC[N]4C(=O)C3)c(C)n2C(=O)c1ccc(Cl)cc1 (stereo not shown) [Compound 266] | 0.6 | 0.2 |  |
| COc1ccc2c(c1)c(CC(=O)NCCCOCC[N+]13CC[S][Re-]14(=[O])[S]CC[N]4C(=O)C3)c(C)n2C(=O)c1ccc(Cl)cc1 (stereo not shown) [Compound 267] | > 30 | 0.3 |  |
| COc1ccc2c(c1)c(CC(=O)NCCCC(C)(C)NC(=O)c1ccc[cH-]1)c(C)n2C(=O)c1ccc(Cl)cc1.[C-]#[O+].[C-]#[O+].[C-]#[O+].[Re+] [Compound 311] |  | 0.4 |  |
| COc1ccc2c(c1)c(CC(=O)NCCCCCC(C)(C)NC(=O)c1ccc[cH-]1)c(C)n2C(=O)c1ccc(Cl)cc1.[C-]#[O+].[C-]#[O+].[C-]#[O+].[Re+] [Compound 313] |  | 0.2 |  |
| COc1ccc2c(c1)c(CC(=O)NCCCNCCC[N+]13CC[S][Re-]14(=[O])[S]CC[N]4C(=O)C3)c(C)n2C(=O)c1ccc(Cl)cc1 (stereo not shown) [Compound 320] |  | 5 |  |
| COc1ccc2c(c1)c(CCNC(=O)CC[N+]13CC[S][Re-]14(=[O])[S]CC[N]4C(=O)C3)c(C)n2C(=O)c1ccc(Cl)cc1 (stereo not shown) [Compound 356] |  | 1.6 |  |
